Measured values published in patent US20190029987A1, “DIMETHYL FUMARATE (DMF) FOR PREVENTION OR TREATMENT OF GOUT, ACNE, DIABETES, VITILIGO AND/OR PYODERMA GANGRENOSUM” (UNIVERSITAT ZURICH, priority 2016, published 2019).

How the values were obtained:
[1] = target: caspase-1 / Rbx1 interaction (Homo sapiens, UniProt P29466); details: HPKs, 50 μM, harvested 1 h later, FIG. 5C
Protocol: To address this point, the inventors performed co-immunoprecipitation (co-IP) experiments with an antibody for caspase-1 and lysates of HPKs. […] In addition, the inventors overexpressed a FLAG-tagged version of caspase-1 in HPKs and precipitated the protease with an ANTI-FLAG M2 Affinity Gel (FIG. 5B).
Co-immunoprecipitation (co-IP) was performed with lysates of HPKs as described (Sollberger et al., J Immunol 2012. 188: 1992-2000). Briefly, HPKs were grown in 10 cm dishes, transfected with siRNA (scr or siRNA targeting Rbx1), and propagated to 80% confluency (3 days), Four dishes were harvested in 150 μl co-IP buffer with complete proteinase inhibitor (Roche, Rotkreuz, Switzerland), respectively. After treatment in a douncer, the lysates were centrifuged (20 min, 17 000×g). The supernatant was diluted 1: 1 with co-IP buffer and incubated with 20 μg antibody (caspase-1 or HA). After centrifugation, 150 μl (50 mg/ml) protein A Sepharose (GE Healthcare, Little Chalfront, UK) was added. After 90 min, the beads were washed four times with co-IP buffer and resuspended in 100 μl 2×loading SDS buffer. Alternatively, co-immunoprecipitation was performed using an ANTI-FLAG® M2 Affinity Gel (Sigma). HPKs were grown in 10 cm dishes and transduced with lentiviral constructs encoding FLAG-tagged caspase-1 or GFP as described above. […]

[2] = tested on: Monosodium urate (MSU) crystal-induced peritonitis; experiment: MSU crystal-induced peritonitis mouse model (neutrophils in peritoneal lavage); format: in vivo; details: mice, oral gavage 25 mg/kg in PBS for two days, 6 h post 2 mg MSU crystals, vs control mice, FIG. 3B
Protocol: Monosodium urate (MSU) crystal-induced peritonitis is a mouse model of inflammation and gout, which is dependent on IL-1, IL-1R1, MyD88 and the NLRP3 inflammasome. […] The inventors chose a different way of administration and supplied mice with SFN or DMF by oral gavage to determine a potential anti-inflammatory activity of the Nrf2 activators in vivo (FIG. 3). […] The inventors analysed the cellular infiltrate in the peritoneum 6 h post injection of MSU crystals.
Mice were challenged with 2 mg of MSU crystals for 6 hours as previously described (Chen et a Olin Invest 2006. 116: 2262-2271).
Mice treated by gavage with (A, B, C) SFN (25 mg/kg) in PBS or (D, E, F) DMF (20 mg/kg) in H2O containing 0.08% methocel and 10% DMSO, vehicle-treated mice served as control. Regime for (A) SFN or (D) DMF treatment. Peritonitis was induced by peritoneal injection of 2 mg MSU crystals, (B, E) After 6 h the number of neutrophils of the peritoneal lavage was determined by flow cytornetry. […] Statistics: Student's t-test. (B, C) n≥3, (E, F) n=7. *P≤0.05; **P≤0.01

Sequence of caspase-1 / Rbx1 interaction (P29466 120-404): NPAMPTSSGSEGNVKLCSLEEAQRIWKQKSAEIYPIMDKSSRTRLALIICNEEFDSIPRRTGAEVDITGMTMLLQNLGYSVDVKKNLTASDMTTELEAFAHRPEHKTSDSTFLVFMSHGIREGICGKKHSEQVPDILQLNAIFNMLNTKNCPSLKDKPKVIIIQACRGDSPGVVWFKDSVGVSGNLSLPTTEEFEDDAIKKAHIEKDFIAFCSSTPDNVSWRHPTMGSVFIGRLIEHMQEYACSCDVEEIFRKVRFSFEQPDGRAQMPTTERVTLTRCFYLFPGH

C[S+]([O-])CCCCN=C=S (centres unmarked) [SFN, sulforaphane]
interaction between caspase-1 and Rbx1 (co-IP) [1]: did not prevent the interaction between caspase-1 and Rbx1 | number of neutrophils in the peritoneum [2]: significantly reduced
